Patent publication US20030027819A1, “Beta-sheet mimetics and methods relating to the use thereof” (Molecumetics Ltd., priority 1996, published 2003)
pIC50, pKi: −log10 of the molar value. Values joined by “and” are separate entries in the source; they are usually repeats but may differ in a detail not shown here. Identical values can stand only once.

Tests used:
bovine trypsin = target: T1, bovine trypsin (Bos taurus, UniProt P00760); assay: Trypsin inhibition assay (IC50, Example 4); type: biochemical
T1 construct: purchased Sigma
T1 sequence (P00760 24-246): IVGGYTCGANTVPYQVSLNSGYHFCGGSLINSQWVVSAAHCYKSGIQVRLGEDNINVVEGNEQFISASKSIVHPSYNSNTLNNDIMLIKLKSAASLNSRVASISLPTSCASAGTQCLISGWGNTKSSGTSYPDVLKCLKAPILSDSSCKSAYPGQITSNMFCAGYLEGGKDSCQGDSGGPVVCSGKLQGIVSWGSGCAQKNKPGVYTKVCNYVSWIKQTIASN
Description: (§1) This solution (2.05 mM) served as the stock solution for all the inhibition assays. The hydrolysis of chromogenic substrates was monitored at 405 nm. The reaction progress curves were recorded by reading the plates typically 90 times with 30 seconds to 2 minute intervals. The initial rate were determined by unweighted nonlinear least-squares fitting to a first order reaction in GraFit.
In the trypsin assay, pH 7.8 Tris (0.10 M Tris and 0.02 M CaCl2) was utilized as the buffer. BAPNA (from Sigma) was used at 1 mg/ml in 1% DMSO (v/v) deionized water solution as substrate. The same dilutions of structure (13b) were made as for Factor VII assay.

urokinase [1] = target: T2, urokinase (Homo sapiens, UniProt P00749); assay: Urokinase inhibition assay (IC50, Example 4); type: biochemical; set-up: purchased Sigma
Description: as §1
In the urokinase assay, buffer was pH 8.8 0.05 M Tris and 0.05 M NaCl in deionized water. S-2444 (from Sigma), pyroGlu-Gly-Arg-pNA at 0.5 mM in water was utilized as substrate. The same dilution procedure was used as for Factor VII and Factor X. Assay protocol is the same as for thrombin except 18.5 nM of human urokinase (from Sigma) was utilized.

control plasma = assay: Prothrombin time (PT) in control plasma; type: biochemical
Description: Then 200 μl of prewarmed (at 37° C. for ˜10 minutes) thromboplastin with calcium (from Sigma) was rapidly added into the plasma sample.

Plasmin [2] = target: T3, Plasmin (Bos taurus, UniProt P06868); assay: Plasmin inhibition assay (IC50, Example 4); type: biochemical
Description: as §1
For dilutions of structure (13b) (see urokinase assay).

[3] = target: T4, Tissue Plasminogen Activator (t-PA) (Homo sapiens, UniProt P00750); assay: Tissue plasminogen activator inhibition assay (IC50, Example 4); type: biochemical
Description: as §1
Buffer, substrate and the dilution scheme of structure (13b) were the same as utilized for Factor VII assay.

bovine factor Xa = target: T5, bovine factor Xa (Bos taurus, UniProt P00743); assay: Factor X inhibition assay (IC50, Example 4); type: biochemical
T5 construct: 25 nM of bovine factor Xa (from Sigma); purchased Sigma
Description: as §1
In the Factor X assay, buffer and substrate are the same as used for thrombin assay. A 1:100 dilution was made into pH 8.4 Tris buffer to serve as the first point. Seven dilutions with a dilution factor of 2 were made. The assay protocol is the same as for thrombin except 25 nM of bovine factor Xa (from Sigma) in pH 8.4 Tris buffer was used instead of thrombin.

FVIIa and TF complex = target: T6, FVIIa and TF complex (Homo sapiens, UniProt P08709); assay: Factor VII inhibition assay (IC50, Example 4); type: biochemical
T6 construct: 50 μl of 16 nM FVIIa and TF complex solution
Description: as §1
In the Factor VII assay, S-2288 (from Pharmacia), D-Ile-Pro-Arg-pNA was used at […] in deionized water as substrate. […] This dilution served as the first point of the inhibitor (20 μM). From this concentration point 6 more sequential dilutions were made with a dilution factor of 2. 50 μl of 16 nM FVIIa and TF complex solution and 40 μl of the inhibitor solutions were added into each well, the mixtures were incubated for 20 minutes before 10 μl of 20 mM S-2288 was added.

Plasmin [4] = target: T3, Plasmin; assay: Plasmin inhibition assay (Ki, Example 5); type: biochemical, bovine
Description: (§2) The reaction progress curves were recorded by reading the plates, typically 60 times with 30 second to 2 minute intervals. Initial rates were determined by unweighted nonlinear least-squares fitting to a first order reaction in GraFit (Erithacus Software Limited, London, England).

tryptase = tryptase (Homo sapiens, UniProt Q15661); assay: Tryptase inhibition assay (Ki, Example 5); type: biochemical
factor X = factor X (Bos taurus, UniProt P00743); assay: Factor X inhibition assay (Ki, Example 5), bovine plasma enzyme; type: biochemical; details: bovine plasma enzyme (Example 5 protocol)
Description: as §2, with “The hydrolysis of chromogenic substrates was monitored at 405 nm. The” for “The”
Buffer and substrate were the same as used for thrombin assay. A 1:100 dilution was made in the pH8.0 tris buffer to serve as the first point. Seven more dilutions from the first were made for the assay.

[5] = target: T4, Tissue Plasminogen Activator (t-PA); assay: t-PA inhibition assay (Ki, Example 5); type: biochemical; details: read-out: Ki t-PA
Description: as §2

thrombin = thrombin (Bos taurus, UniProt P00735); assay: Thrombin inhibition assay (Ki, Example 5); type: biochemical, bovine; set-up: thrombin; bovine plasma; 0.66; from tissue; host or cells: bovine plasma
Description: as §2
Seven sequential dilutions were made from the first point for the assay.

factor VII = factor VII (Homo sapiens, UniProt P08709); assay: Factor VII inhibition assay (Ki, Example 5); type: biochemical
Description: as §2
From this concentration point seven more sequential dilutions were made for the assay.

[6] = target: Activated Protein C (aPC) (Homo sapiens, UniProt P04070); assay: Activated Protein C inhibition assay (Ki, Example 5); type: biochemical
trypsin = target: T7, trypsin (Bos taurus, UniProt P00760); assay: Trypsin inhibition assay (Ki, Example 5); type: biochemical, bovine
T7 sequence (P00760 24-246): T1 sequence (P00760 24-246)
Description: as §2

urokinase [7] = target: T2, urokinase; assay: Urokinase inhibition assay (Ki, Example 5); type: biochemical
Factor XI = Factor XI (Homo sapiens, UniProt P03951); assay: Factor XI inhibition assay (Ki, Example 8); type: biochemical
Description: as §2
Factor XI. The same buffer was utilized in this assay as in the thrombin assay. […] From this 100 μM solution, seven serial 1:5 dilutions were made in buffer for assay.

T4 sequence (P00750 36-562): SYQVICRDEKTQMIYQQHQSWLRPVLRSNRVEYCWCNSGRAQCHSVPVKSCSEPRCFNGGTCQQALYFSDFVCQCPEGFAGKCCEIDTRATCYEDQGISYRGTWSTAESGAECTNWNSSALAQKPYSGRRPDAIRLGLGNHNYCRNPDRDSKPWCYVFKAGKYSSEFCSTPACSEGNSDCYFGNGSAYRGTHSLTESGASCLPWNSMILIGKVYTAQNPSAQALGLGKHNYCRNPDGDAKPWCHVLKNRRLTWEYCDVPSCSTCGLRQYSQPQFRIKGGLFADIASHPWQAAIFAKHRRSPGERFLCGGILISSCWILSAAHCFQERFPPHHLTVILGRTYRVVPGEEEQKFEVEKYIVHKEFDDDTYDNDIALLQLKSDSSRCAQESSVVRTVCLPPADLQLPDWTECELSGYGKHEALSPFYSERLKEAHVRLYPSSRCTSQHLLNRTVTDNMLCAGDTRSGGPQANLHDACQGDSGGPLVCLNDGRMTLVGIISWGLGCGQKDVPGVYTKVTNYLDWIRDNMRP
T3 sequence (P06868 584-812 limits assumed): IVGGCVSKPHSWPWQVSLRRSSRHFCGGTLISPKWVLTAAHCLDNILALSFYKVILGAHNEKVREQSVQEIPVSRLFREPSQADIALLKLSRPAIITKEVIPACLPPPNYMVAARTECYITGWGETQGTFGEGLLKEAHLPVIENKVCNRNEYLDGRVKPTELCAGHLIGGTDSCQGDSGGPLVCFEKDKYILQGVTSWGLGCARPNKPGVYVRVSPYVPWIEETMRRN
T3 sequence (P06868 104-583 limits assumed): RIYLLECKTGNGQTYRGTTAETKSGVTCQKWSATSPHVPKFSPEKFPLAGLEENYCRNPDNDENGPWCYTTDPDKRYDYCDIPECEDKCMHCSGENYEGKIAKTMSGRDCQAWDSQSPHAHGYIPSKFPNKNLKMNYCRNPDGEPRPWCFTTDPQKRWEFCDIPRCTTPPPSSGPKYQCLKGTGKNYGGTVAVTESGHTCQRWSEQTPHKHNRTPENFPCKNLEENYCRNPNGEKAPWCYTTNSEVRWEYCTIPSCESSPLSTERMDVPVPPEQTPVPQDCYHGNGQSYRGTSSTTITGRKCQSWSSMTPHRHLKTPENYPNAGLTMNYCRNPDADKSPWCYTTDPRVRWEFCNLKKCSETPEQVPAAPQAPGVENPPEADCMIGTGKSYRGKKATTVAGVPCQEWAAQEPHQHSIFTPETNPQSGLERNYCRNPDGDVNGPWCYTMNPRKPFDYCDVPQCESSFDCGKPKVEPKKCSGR
Activated Protein C (aPC), sequence (P04070 212-461 limits assumed): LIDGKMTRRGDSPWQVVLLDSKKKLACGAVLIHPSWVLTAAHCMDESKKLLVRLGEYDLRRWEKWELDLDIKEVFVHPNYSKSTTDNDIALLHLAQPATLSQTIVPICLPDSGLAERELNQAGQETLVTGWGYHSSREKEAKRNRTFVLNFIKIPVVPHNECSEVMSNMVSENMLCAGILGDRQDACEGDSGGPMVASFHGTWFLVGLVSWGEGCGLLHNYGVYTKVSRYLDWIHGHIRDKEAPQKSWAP
Activated Protein C (aPC), sequence (P04070 43-197 limits assumed): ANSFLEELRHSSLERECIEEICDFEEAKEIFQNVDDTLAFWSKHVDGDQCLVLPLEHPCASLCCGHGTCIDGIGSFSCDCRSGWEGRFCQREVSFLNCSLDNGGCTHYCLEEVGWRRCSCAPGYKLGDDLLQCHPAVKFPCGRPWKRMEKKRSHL
T6 sequence (P08709 213-466 limits assumed): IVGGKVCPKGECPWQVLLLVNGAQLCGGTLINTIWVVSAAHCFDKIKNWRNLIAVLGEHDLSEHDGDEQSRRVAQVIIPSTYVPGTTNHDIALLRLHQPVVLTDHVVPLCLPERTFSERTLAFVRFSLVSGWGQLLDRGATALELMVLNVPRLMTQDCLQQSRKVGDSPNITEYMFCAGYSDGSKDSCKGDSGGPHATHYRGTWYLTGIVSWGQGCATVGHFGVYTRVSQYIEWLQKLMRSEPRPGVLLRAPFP
T6 sequence (P08709 61-212 limits assumed): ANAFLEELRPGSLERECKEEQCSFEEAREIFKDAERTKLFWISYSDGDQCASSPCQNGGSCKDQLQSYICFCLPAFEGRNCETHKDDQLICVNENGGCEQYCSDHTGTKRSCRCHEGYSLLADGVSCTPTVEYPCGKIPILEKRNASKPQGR
T6 sequence (P13726 33-295 partner): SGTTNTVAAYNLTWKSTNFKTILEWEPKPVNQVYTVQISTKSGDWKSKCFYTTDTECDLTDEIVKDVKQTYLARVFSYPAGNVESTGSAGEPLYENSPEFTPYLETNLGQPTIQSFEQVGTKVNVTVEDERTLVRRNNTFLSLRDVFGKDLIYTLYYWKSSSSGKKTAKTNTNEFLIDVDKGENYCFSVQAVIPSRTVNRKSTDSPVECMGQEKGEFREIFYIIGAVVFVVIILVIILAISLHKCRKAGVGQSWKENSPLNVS
factor VII, sequence (P08709 213-466 limits assumed): as the sequence (P08709 213-466 limits assumed) above
factor VII, sequence (P08709 61-212 limits assumed): as the sequence (P08709 61-212 limits assumed) above
factor VII, sequence (P13726 33-295 partner): as the sequence (P13726 33-295 partner) above
T5 sequence (P00743 234-492 limits assumed): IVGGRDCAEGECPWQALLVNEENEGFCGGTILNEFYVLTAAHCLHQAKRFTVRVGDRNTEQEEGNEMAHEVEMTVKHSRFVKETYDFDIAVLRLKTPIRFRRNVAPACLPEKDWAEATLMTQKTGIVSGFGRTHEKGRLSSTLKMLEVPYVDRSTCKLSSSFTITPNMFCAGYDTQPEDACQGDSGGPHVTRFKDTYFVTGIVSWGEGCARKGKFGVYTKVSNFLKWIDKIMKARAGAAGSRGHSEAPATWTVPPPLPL
T5 sequence (P00743 41-180 limits assumed): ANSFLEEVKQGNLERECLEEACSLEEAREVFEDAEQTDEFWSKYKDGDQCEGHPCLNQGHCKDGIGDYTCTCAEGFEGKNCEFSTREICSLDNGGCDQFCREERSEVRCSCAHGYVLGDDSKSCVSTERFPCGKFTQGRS
factor X, sequence (P00743 234-492 limits assumed): as the sequence (P00743 234-492 limits assumed) above
factor X, sequence (P00743 41-180 limits assumed): as the sequence (P00743 41-180 limits assumed) above
tryptase, sequence (Q15661 31-275): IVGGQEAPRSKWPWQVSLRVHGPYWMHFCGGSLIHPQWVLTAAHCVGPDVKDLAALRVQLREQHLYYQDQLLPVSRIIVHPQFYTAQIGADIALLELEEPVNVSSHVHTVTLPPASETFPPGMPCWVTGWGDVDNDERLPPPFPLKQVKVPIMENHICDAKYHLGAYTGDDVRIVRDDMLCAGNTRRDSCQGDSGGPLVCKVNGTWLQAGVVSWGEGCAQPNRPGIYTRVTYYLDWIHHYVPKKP
Factor XI, sequence (P03951 388-625 limits assumed): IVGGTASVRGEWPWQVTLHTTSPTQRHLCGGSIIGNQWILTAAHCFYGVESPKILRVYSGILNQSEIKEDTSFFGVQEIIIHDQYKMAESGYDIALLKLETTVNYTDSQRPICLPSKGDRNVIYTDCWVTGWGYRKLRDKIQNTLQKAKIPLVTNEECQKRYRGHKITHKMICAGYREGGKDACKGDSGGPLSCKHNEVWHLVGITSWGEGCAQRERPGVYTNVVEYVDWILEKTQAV
Factor XI, sequence (P03951 19-387 limits assumed): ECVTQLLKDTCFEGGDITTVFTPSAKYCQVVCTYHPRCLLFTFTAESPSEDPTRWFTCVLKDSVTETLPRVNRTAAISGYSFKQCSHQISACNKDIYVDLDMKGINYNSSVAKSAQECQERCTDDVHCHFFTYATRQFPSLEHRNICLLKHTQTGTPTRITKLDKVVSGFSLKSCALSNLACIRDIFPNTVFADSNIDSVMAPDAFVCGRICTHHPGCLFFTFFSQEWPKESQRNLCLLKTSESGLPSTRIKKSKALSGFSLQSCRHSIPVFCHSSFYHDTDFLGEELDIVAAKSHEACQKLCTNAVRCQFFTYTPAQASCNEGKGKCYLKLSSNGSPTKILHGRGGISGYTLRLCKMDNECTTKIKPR

Structure (SMILES): N=C(N)NCCC[C@H](NC(=O)[C@@H]1CCCN1C(=O)[C@H](N)Cc1ccccc1)C(=O)CCl [PPACK, reference compound]
- pIC50 (bovine trypsin): 6.67
- PT (control plasma; Concentration 500 pM): 15 s
- PT (control plasma; Concentration 1 nM): 18 s
- PT (control plasma; Concentration 10 nM): 22 s
- PT (control plasma; Concentration 20 nM): 25 s
- PT (control plasma; Concentration 40 nM): 28 s
- PT (control plasma; Concentration 60 nM): 30 s
- PT (control plasma; Concentration 80 nM): 31 s
- pIC50 (Plasmin [2]): 6.16
- pIC50 [3]: 6.97
- pIC50 (bovine factor Xa): 6.78
- pIC50 (FVIIa and TF complex): 6.70

Structure (SMILES): N=C(N)NCCC[C@H](NC(=O)[C@@H]1CC[C@@H]2CC[C@@](N)(Cc3ccccc3)C(=O)N21)C(=O)c1nc2ccccc2s1 [Structure 29b]
- pKi (Plasmin [4]): 6.60
- pKi (tryptase): 8.05
- pKi (factor X): 7.77
- pKi [5]: 7.03
- pKi (thrombin): 10.07
- pKi (factor VII): 6.70
- pKi [6]: 5.90
- pKi (trypsin): 9.70 and 9.64
- pKi (urokinase [7]): 6.47
- pKi (Factor XI): 7.12
